From article PMC7508162 (Frontiers in Pharmacology, 2020) come the findings set out here.

The target of the assay is T1, NPP1 (Homo sapiens, UniProt P22413).
T1 construct: the catalytic domains of the enzymes were amplified and sub-cloned into the expression vector pACGP67 A/B; made in house; host or cells: Sf9 insect cells
T1 sequence (P22413 98-925 limits assumed): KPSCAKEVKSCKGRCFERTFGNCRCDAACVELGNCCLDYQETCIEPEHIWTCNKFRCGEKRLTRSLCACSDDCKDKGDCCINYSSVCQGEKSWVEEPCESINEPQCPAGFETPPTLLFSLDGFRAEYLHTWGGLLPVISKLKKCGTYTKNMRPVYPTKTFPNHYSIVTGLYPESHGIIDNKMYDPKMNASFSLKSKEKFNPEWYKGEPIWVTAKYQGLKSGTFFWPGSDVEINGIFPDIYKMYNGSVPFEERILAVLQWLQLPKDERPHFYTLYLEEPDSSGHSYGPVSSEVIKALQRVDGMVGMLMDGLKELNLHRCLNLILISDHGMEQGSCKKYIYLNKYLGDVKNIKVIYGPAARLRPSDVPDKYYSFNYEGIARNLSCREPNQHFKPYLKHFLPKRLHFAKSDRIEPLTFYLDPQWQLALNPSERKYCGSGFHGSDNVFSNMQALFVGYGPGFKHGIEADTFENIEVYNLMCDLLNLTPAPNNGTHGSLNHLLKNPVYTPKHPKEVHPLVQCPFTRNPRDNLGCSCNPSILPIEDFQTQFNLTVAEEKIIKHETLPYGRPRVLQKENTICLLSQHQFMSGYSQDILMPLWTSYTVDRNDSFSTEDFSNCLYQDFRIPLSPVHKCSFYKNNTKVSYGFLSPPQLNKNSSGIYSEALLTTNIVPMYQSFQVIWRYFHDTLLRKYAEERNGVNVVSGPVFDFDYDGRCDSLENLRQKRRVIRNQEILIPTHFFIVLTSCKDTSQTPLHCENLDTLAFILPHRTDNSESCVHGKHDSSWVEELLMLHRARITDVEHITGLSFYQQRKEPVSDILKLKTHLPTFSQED
As to the kind of experiment: NPP1 assay with p-Nph-5'-TMP as substrate. Type of assay: biochemical. The conditions noted are these: soluble NPP1; 400 µM p-Nph-5'-TMP; read-out: Ki ± SEM. The text has this: The cDNAs of the human enzymes NPP1, NPP3, NPP5, CD38 and CD73 (Genbank accession no. NM_006258, NM_005021, NM_021572, NM_ 001775, and NM_002526, respectively) were obtained from Origene (Rockville, USA). Soluble enzymes were produced as previously reported with some modifications ([Lee et al., 2015]; [Junker et al., 2019]). Briefly, the catalytic domains of the enzymes were amplified and sub-cloned into the expression vector pACGP67 A/B modified with the addition of 9 x histidine tag (His-tag) at the C-terminus (except for NPP1). The plasmids were transfected in Sf9 insect cells using Cellfectin™ II Reagent (Thermo Fisher Scientific, MA, USA) and ProEasy™ baculovirus linearized DNA (Cat.#A10S, AB Vector, LLC). Protein expression was conducted for 48 h at 27°C. The signal peptide sequence of the expression vector shuttled the proteins into the supernatant. The supernatant medium was collected, and the enzymes were purified using HisPur™ Ni^2+-NTA spin columns according to the manufacturer’s protocol. The protein concentration was determined by the method previously described by [Lowry et al. (1951)].
Inhibition of NPP1 was determined as previously described ([Lee et al., 2017b]). p-Nitrophenyl-5’-thymidine monophosphate (p-Nph-5’-TMP) was used as an artificial substrate which results in the formation of the p-nitrophenolate anion with an absorption maximum of 400 nm. Purified soluble NPP1 [0.36 µg, expressed in Sf9 insect cells as previously described ([Lee et al., 2015])] was mixed with test compound (20 µM final concentration for initial screening, 0.1–200 µM for determining concentration-dependent inhibition curves), 2% DMSO and 400 µM of p-Nph-5’-TMP as a substrate in a final volume of 100 µl. The mixture was incubated for 30 min at 37°C with gentle shaking, and the enzyme reaction was terminated by the addition of 20 µl of 1 M NaOH. The absorption was measured at 405 nm using a BMG PheraStar FS plate reader (BMG Labtech GmbH, Ortenberg, Germany).

Each structure is given as a SMILES string.

Take `CCCCNc1nc2c(NC)ncnc2n1[C@@H]1O[C@H](COP(=O)(O)OP(=O)(O)C(Br)(Br)P(=O)(O)O)[C@@H](O)[C@H]1O` [Compound 33, (Dibromo((((((2R,3S,4R,5R)-5-(8-(butylamino)-6-(methylamino)-9H-purin-9-yl)-3,4-dihydroxy-tetrahydrofuran-2-yl)methoxy)(hydroxy)phosphoryl)oxy)-(hydroxy)phosphoryl)methyl)-phosphonic Acid]: the Ki is 7.68 ± 5.4 µM. The figure for `CCCCSc1nc2c(N)ncnc2n1[C@@H]1O[C@H](COP(=O)(O)OP(=O)(O)C(Br)(Br)P(=O)(O)O)[C@@H](O)[C@H]1O` [Compound 31, (((((((2R,3S,4R,5R)-5-(6-Amino-8-(butylthio)-9H-purin-9-yl)-3,4-dihydroxytetrahydrofuran-2-yl)methoxy)(hydroxy)-phosphoryl)oxy)(hydroxy)phosphoryl)dibromomethyl)-phosphonic Acid] is 5.17 ± 1.75 µM; for `CCN(CC)c1ncnc2c1ncn2[C@@H]1O[C@H](COP(=O)(O)OP(=O)(O)C(Br)(Br)P(=O)(O)O)[C@@H](O)[C@H]1O` [ARL67156, (Dibromo((((((2R,3S,4R,5R)-5-(6-(diethylamino)-9H-purin-9-yl)-3,4-dihydroxytetrahydrofuran-2-yl)methoxy)-(hydroxy)-phosphoryl)oxy)(hydroxy)phosphoryl)methyl)-phosphonic Acid, reference compound] it is 4.41 ± 3.53 µM.
